Laboratory results from paper PMC8467848 (Molecules, 2021).
Structures can show the parent of a compound that is named as a salt. Values belong to the compound of their own block, whether it stands above or below them.

Key:
[1] = biological target: T1, κ-opioid receptor (Mus musculus, UniProt P33534); assay: biochemical; assay type: binding
T1 construct: performed on mouse brain homogenates; from tissue; host or cells: mouse brain membranes / homogenates

[2] = biological target: T2, δ-opioid receptor (Mus musculus, UniProt P32300); assay: biochemical; assay type: binding
T2 construct: performed on mouse brain homogenates; from tissue; host or cells: mouse brain membranes / homogenates
T2 sequence (P32300 whole entry): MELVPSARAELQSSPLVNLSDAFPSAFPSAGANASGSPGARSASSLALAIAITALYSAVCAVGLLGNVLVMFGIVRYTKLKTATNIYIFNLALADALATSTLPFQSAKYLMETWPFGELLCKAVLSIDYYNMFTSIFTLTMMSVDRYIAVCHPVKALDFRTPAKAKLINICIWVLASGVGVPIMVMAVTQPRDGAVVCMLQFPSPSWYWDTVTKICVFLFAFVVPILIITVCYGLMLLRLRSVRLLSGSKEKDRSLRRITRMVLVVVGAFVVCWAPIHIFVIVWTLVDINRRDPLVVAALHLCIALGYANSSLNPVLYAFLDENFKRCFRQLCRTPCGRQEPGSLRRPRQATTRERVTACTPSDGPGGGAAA

[3] = biological target: T3, μ-opioid receptor (Mus musculus, UniProt P42866); assay: biochemical; assay type: binding
T3 construct: performed on mouse brain homogenates in the presence of ^3H-DAMGO for μ-receptor; from tissue; host or cells: mouse brain membranes / homogenates
T3 sequence (P42866 whole entry): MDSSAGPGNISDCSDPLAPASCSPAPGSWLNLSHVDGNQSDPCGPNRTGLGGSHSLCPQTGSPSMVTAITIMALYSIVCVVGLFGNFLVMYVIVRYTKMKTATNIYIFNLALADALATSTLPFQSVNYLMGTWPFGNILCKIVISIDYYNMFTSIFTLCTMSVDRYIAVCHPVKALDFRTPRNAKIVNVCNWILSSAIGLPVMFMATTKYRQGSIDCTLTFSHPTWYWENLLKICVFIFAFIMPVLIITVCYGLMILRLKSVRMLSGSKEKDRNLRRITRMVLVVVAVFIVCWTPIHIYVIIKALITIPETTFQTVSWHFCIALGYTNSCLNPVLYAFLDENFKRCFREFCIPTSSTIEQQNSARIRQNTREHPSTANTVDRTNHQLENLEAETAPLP

T1 sequence (P33534 whole entry): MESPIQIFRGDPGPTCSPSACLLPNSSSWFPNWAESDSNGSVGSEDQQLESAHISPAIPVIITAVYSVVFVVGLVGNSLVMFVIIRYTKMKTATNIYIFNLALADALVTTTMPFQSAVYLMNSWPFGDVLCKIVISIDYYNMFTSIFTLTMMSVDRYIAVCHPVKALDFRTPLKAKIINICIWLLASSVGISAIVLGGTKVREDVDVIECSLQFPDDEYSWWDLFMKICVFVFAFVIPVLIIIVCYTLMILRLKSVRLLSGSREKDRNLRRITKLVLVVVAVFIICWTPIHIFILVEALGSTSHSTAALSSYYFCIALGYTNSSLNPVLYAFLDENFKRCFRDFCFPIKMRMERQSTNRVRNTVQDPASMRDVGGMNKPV

Compound: CCC(=O)N1C2CCC1C1CCC2N1CC=C1CCc2ccccc21 (as salt: hydrochloride)
melting point: 132 to 134 °C

Compound: CCC(=O)N1C2CCC1C1CCC2N1CC=C1CCc2cc(F)ccc21 (as salt: hydrochloride)
melting point: 181 to 183 °C

Compound: CCC(=O)N1C2CCC1C1CCC2N1CC=C1CCc2cc(Cl)ccc21 (as salt: hydrochloride)
melting point: 170 to 173 °C

Compound: CCC(=O)N1C2CCC1C1CCC2N1Cc1cc2ccccc2[nH]1 (as salt: hydrochloride) [Compound 53, 9-Propionyl-10-(1H-indol-2-ylmethyl)-9, 10-diazatricyclo[4.2.1.1^2.5]decane]
melting point: 106 °C

Compound: CCC(=O)N1C2CCC3C1CCC2N3Cc1cc2ccccc2[nH]1 (as salt: hydrochloride) [Compound 54, 2-Propionyl-7-(1H-indol-2-ylmethyl)-2,7-diazatricyclo[4.4.0.0^3.8]decane]
melting point: 54 °C

Compound: CCC(=O)N1C2CCC1C1CCC2N1Cc1cnc2ccccc2n1 (as salt: hydrochloride) [Compound 59, 9-Propionyl-10-(quinoxalyn-2-ylmethyl)-9,10-diazatricyclo[4.2.1.1^2,5]decane]
melting point: 128 °C

Compound: CCC(=O)N1C2CCC1C1CCC2N1Cc1cc2ccccc2[nH]1 [Compound 53, 9-Propionyl-10-(1H-indol-2-ylmethyl)-9, 10-diazatricyclo[4.2.1.1^2.5]decane]
Ki [1]: > 1000 nM
affinity towards κ-receptors in words [1]: negligible affinity
Ki [2]: > 1000 nM
affinity towards δ-receptors in words [2]: negligible affinity
Ki [3]: 22 ± 3 nM
μ-affinity / binding in words [3]: nanomolar range

Compound: CCC(=O)N1C2CCC3C1CCC2N3Cc1cc2ccccc2[nH]1 [Compound 54, 2-Propionyl-7-(1H-indol-2-ylmethyl)-2,7-diazatricyclo[4.4.0.0^3.8]decane]
Ki [1]: > 1000 nM
Ki [2]: > 1000 nM
Ki [3]: 500 ± 45 nM
fold lower μ-affinity compared to its isomer [3]: 23 fold

Compound: CCC(=O)N1C2CCC3C1CCC2N3Cc1ccc2ccccc2n1 [Compound 58, 2-Propionyl-7-(quinolyn-2-ylmethyl)-2,7-diazatricyclo[4.2.0.0^3,8]decane]
Ki [1]: > 1000 nM
Ki [2]: > 1000 nM
Ki [3]: 490 ± 46 nM

Compound: CCC(=O)N1C2CCC1C1CCC2N1Cc1cnc2ccccc2n1 [Compound 59, 9-Propionyl-10-(quinoxalyn-2-ylmethyl)-9,10-diazatricyclo[4.2.1.1^2,5]decane]
Ki [1]: > 1000 nM
Ki [2]: > 1000 nM
Ki [3]: > 1000 nM

Continued, values first:

melting point: 167 to 170 °C
Compound: CCC(=O)N1C2CCC1C1CCC2N1CC=C1CCc2cc(Br)ccc21 (as salt: hydrochloride)

melting point: 167 to 170 °C
Compound: CCC(=O)N1C2CCC3C1CCC2N3CC=C1CCc2ccccc21 (as salt: hydrochloride)

melting point: 179 to 181 °C
Compound: CCC(=O)N1C2CCC3C1CCC2N3CC=C1CCc2cc(Cl)ccc21 (as salt: hydrochloride)

melting point: 177 to 179 °C
Compound: CCC(=O)N1C2CCC3C1CCC2N3CC=C1CCc2cc(Br)ccc21 (as salt: hydrochloride)

melting point: 131 to 133 °C
Compound: CCC(=O)N1C2CCC3C1CCC2N3CC=C1CCc2cc(F)ccc21 (as salt: hydrochloride) [Compound 25, 2-Propionyl-7-[(E)-1-(2-(5-fluoro-2,3-dihydro-1H-inden-1-ylidene)ethyl]-2,7-diazatricyclo[4.2.0.0^3,8]decane]
